Source: PubChem BioAssay (NCI)
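Where inhibition never reached the appropriate level, the endpoint shown equals the highest concentration tested. Otherwise, values were interpolated linearly from a five-concentration, 48-hour dose response in 96-well plates. The concentration for 50% growth inhibition is given as GI50. TGI denotes the concentration required for complete inhibition of growth.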

How the values were obtained:
Test in all cases: NCI anticancer screen, dose series, 48 h
CCRF-CEM leukemia = tested on: CCRF-CEM leukemia
NCI-H23 lung = tested on: NCI-H23 lung
A498 renal = tested on: A498 renal
EKVX NSCLC = tested on: EKVX NSCLC
SNB-75 CNS = tested on: SNB-75 CNS
RXF 393 renal = tested on: RXF 393 renal
K-562 leukemia = tested on: K-562 leukemia
NCI/ADR-RES ovarian = tested on: NCI/ADR-RES ovarian
SK-MEL-28 melanoma = tested on: SK-MEL-28 melanoma
MDA-MB-231 breast = tested on: MDA-MB-231 breast
KM12 colon = tested on: KM12 colon
A549 NSCLC = tested on: A549 NSCLC
ACHN renal = tested on: ACHN renal
IGROV1 ovarian = tested on: IGROV1 ovarian
OVCAR-5 ovarian = tested on: OVCAR-5 ovarian
RPMI-8226 leukemia = tested on: RPMI-8226 leukemia
NCI-H226 lung = tested on: NCI-H226 lung
MOLT-4 leukemia = tested on: MOLT-4 leukemia
SF-268 CNS = tested on: SF-268 CNS
SF-539 CNS = tested on: SF-539 CNS
786-0 renal = tested on: 786-0 renal
SR leukemia = tested on: SR leukemia
HT29 colon = tested on: HT29 colon
OVCAR-4 ovarian = tested on: OVCAR-4 ovarian
SN12C renal = tested on: SN12C renal
SF-295 CNS = tested on: SF-295 CNS
DU-145 prostate = tested on: DU-145 prostate
SK-MEL-2 melanoma = tested on: SK-MEL-2 melanoma
BT-549 breast = tested on: BT-549 breast
HS 578T breast = tested on: HS 578T breast
UACC-257 melanoma = tested on: UACC-257 melanoma
TK-10 renal = tested on: TK-10 renal
SW-620 colon = tested on: SW-620 colon
SNB-19 CNS = tested on: SNB-19 CNS
HOP-92 NSCLC = tested on: HOP-92 NSCLC
PC-3 prostate = tested on: PC-3 prostate
UO-31 renal = tested on: UO-31 renal
T-47D breast = tested on: T-47D breast
HL-60(TB) leukemia = tested on: HL-60(TB) leukemia
MALME-3M melanoma = tested on: MALME-3M melanoma
MDA-MB-435 = tested on: MDA-MB-435
UACC-62 melanoma = tested on: UACC-62 melanoma
HOP-62 NSCLC = tested on: HOP-62 NSCLC
CAKI-1 renal = tested on: CAKI-1 renal
SK-MEL-5 melanoma = tested on: SK-MEL-5 melanoma
SK-OV-3 ovarian = tested on: SK-OV-3 ovarian
NCI-H522 lung = tested on: NCI-H522 lung

## CCCCCc1ccc(S(=O)(=O)Nc2cccc(-c3csc(NC(=O)CCCCCN4CCN(C)CC4)n3)c2)cc1
CCRF-CEM leukemia
  GI50: 2760 nM
  TGI: 13.7 µM
NCI-H23 lung
  GI50: 2460 nM
  TGI: 6.52 µM
A498 renal
  GI50: 3.36 µM
  TGI: 11.9 µM
EKVX NSCLC
  GI50: 2070 nM
  TGI: 5.29 µM
SNB-75 CNS
  GI50: 1600 nM
  TGI: 3.88 µM
RXF 393 renal
  GI50: 1640 nM
  TGI: 3.35 µM
K-562 leukemia
  GI50: 2420 nM
  TGI: 17.5 µM
NCI/ADR-RES ovarian
  GI50: 8.99 µM
  TGI: 39.4 µM
SK-MEL-28 melanoma
  GI50: 1840 nM
  TGI: 3.37 µM
MDA-MB-231 breast
  GI50: 1850 nM
  TGI: 3.89 µM
KM12 colon
  GI50: 1860 nM
  TGI: 3.49 µM
A549 NSCLC
  GI50: 1940 nM
  TGI: 4.38 µM
ACHN renal
  GI50: 1860 nM
  TGI: 3.56 µM
IGROV1 ovarian
  GI50: 2270 nM
  TGI: 5.29 µM
OVCAR-5 ovarian
  GI50: 2160 nM
  TGI: 5.13 µM
RPMI-8226 leukemia
  GI50: 1830 nM
  TGI: 4.38 µM
NCI-H226 lung
  GI50: 2.55 µM
  TGI: 7.16 µM
MOLT-4 leukemia
  GI50: 2980 nM
  TGI: 9.5 µM
SF-268 CNS
  GI50: 1860 nM
  TGI: 3.93 µM
SF-539 CNS
  GI50: 1670 nM
  TGI: 3.09 µM
786-0 renal
  GI50: 1860 nM
  TGI: 3.38 µM
SR leukemia
  GI50: 1960 nM
  TGI: 4.79 µM
HT29 colon
  GI50: 1860 nM
  TGI: 3.67 µM
OVCAR-4 ovarian
  GI50: 2740 nM
  TGI: 8.69 µM
SN12C renal
  GI50: 2740 nM
  TGI: 8.65 µM
SF-295 CNS
  GI50: 1930 nM
  TGI: 3.95 µM
DU-145 prostate
  GI50: 2110 nM
  TGI: 4.32 µM
SK-MEL-2 melanoma
  GI50: 1.76 µM
  TGI: 3.47 µM
BT-549 breast
  GI50: 2.29 µM
  TGI: 9.55 µM
HS 578T breast
  GI50: 1.92 µM
  TGI: 4.7 µM
UACC-257 melanoma
  GI50: 1.64 µM
  TGI: 3.23 µM
TK-10 renal
  GI50: 2.03 µM
  TGI: 4.51 µM
SW-620 colon
  GI50: 1730 nM
  TGI: 3.23 µM
SNB-19 CNS
  GI50: 2900 nM
  TGI: 9.8 µM
HOP-92 NSCLC
  GI50: 1440 nM
  TGI: 3.3 µM
PC-3 prostate
  GI50: 2200 nM
  TGI: 6.42 µM
UO-31 renal
  GI50: 1620 nM
  TGI: 3.23 µM
T-47D breast
  GI50: 1960 nM
  TGI: 4.93 µM

## COc1cc(/C=N/n2cnc3oc(-c4ccccc4)cc3c2=N)cc(CN2CCCC2)c1O
CCRF-CEM leukemia
  GI50: 1960 nM
  TGI: 5.75 µM
A498 renal
  GI50: 12.9 µM
  TGI: 40.2 µM
EKVX NSCLC
  GI50: 1830 nM
  TGI: 3.77 µM
HL-60(TB) leukemia
  GI50: 3.51 µM
  TGI: 14.2 µM
MALME-3M melanoma
  GI50: 1900 nM
  TGI: 3.96 µM
SNB-75 CNS
  GI50: 856 nM
  TGI: 2.26 µM
MDA-MB-435
  GI50: 1690 nM
  TGI: 3.19 µM
RXF 393 renal
  GI50: 1350 nM
  TGI: 3.43 µM
NCI/ADR-RES ovarian
  GI50: 1.96 µM
  TGI: 4.04 µM
UACC-62 melanoma
  GI50: 19.6 µM
  TGI: 40.8 µM
SK-MEL-28 melanoma
  GI50: 1820 nM
  TGI: 3.56 µM
HOP-62 NSCLC
  GI50: 2020 nM
  TGI: 5.04 µM
MDA-MB-231 breast
  GI50: 1490 nM
  TGI: 2.9 µM
CAKI-1 renal
  GI50: 1400 nM
  TGI: 2880 nM
ACHN renal
  GI50: 1610 nM
  TGI: 3.18 µM
OVCAR-5 ovarian
  GI50: 1670 nM
  TGI: 3.21 µM
RPMI-8226 leukemia
  GI50: 2080 nM
  TGI: 4.82 µM
NCI-H226 lung
  GI50: 5.84 µM
  TGI: 34.1 µM
SK-MEL-5 melanoma
  GI50: 3.49 µM
  TGI: 15.9 µM
MOLT-4 leukemia
  GI50: 2180 nM
  TGI: 6.49 µM
SF-539 CNS
  GI50: 1750 nM
  TGI: 3.46 µM
SN12C renal
  GI50: 1580 nM
  TGI: 3.25 µM
SF-295 CNS
  GI50: 1890 nM
  TGI: 3.9 µM
DU-145 prostate
  GI50: 1830 nM
  TGI: 3.35 µM
SK-MEL-2 melanoma
  GI50: 21.2 µM
  TGI: 47.3 µM
BT-549 breast
  GI50: 23.6 µM
  TGI: 58.4 µM
SK-OV-3 ovarian
  GI50: 18 µM
  TGI: 38.5 µM
HS 578T breast
  GI50: 13.5 µM
  TGI: 34 µM
NCI-H522 lung
  GI50: 2220 nM
  TGI: 5.79 µM
UACC-257 melanoma
  GI50: 20.5 µM
  TGI: 43.8 µM
TK-10 renal
  GI50: 26.4 µM
  TGI: 49.2 µM
HOP-92 NSCLC
  GI50: 1920 nM
  TGI: 13 µM
PC-3 prostate
  GI50: 1500 nM
  TGI: 3.13 µM
UO-31 renal
  GI50: 1420 nM
  TGI: 3.08 µM
T-47D breast
  GI50: 1960 nM
  TGI: 4.69 µM
